According to the kinase profiling compilation of Christmann-Franck et al. (2016):

How the values were obtained:
Assay in all cases: KINOMEscan competition binding
Details in all cases: compound 10.0 µM
BMPR1B (human) = BMPR1B (human) (UniProt O00238)
CSNK2A2 (human) = CSNK2A2 (human) (UniProt P19784)
CDK19 (human) = CDK19 (human) (UniProt Q9BWU1)
RPS6KA6 KD2 (human) = RPS6KA6 KD2 (human) (UniProt Q9UK32)
HUNK (human) = HUNK (human) (UniProt P57058)
[1] = molecular target: TYK2 JH2 pseudokinase (human) (UniProt P29597)
IGF1R (human) = IGF1R (human) (UniProt P08069)
LATS1 (human) = LATS1 (human) (UniProt O95835)
MAPK4 (human) = MAPK4 (human) (UniProt P31152)
BRAF (human) = BRAF (human) (UniProt P15056)
NTRK2 (human) = NTRK2 (human) (UniProt Q16620)
KDR (human) = KDR (human) (UniProt P35968)
PLK2 (human) = PLK2 (human) (UniProt Q9NYY3)
CSNK1A1 (human) = CSNK1A1 (human) (UniProt P48729)
CDK13 (human) = CDK13 (human) (UniProt Q14004)
HCK (human) = HCK (human) (UniProt P08631)
ACVR1B (human) = ACVR1B (human) (UniProt P36896)
AURKB (human) = AURKB (human) (UniProt Q96GD4)
MLTK (human) = MLTK (human) (UniProt Q9NYL2)
YES1 (human) = YES1 (human) (UniProt P07947)
MTOR (human) = MTOR (human) (UniProt P42345)
CDK3 (human) = CDK3 (human) (UniProt Q00526)
PDPK1 (human) = PDPK1 (human) (UniProt O15530)
IRAK3 (human) = IRAK3 (human) (UniProt Q9Y616)
CDKL1 (human) = CDKL1 (human) (UniProt Q00532)
CSNK1D (human) = CSNK1D (human) (UniProt P48730)
MYLK4 (human) = MYLK4 (human) (UniProt Q86YV6)
PI4KB (human) = PI4KB (human) (UniProt Q9UBF8)
ACVR1 (human) = ACVR1 (human) (UniProt Q04771)
MAPK1 (human) = MAPK1 (human) (UniProt P28482)
RPS6KA1 KD1 (human) = RPS6KA1 KD1 (human) (UniProt Q15418)
AKT3 (human) = AKT3 (human) (UniProt Q9Y243)
WEE2 (human) = WEE2 (human) (UniProt P0C1S8)
MUSK (human) = MUSK (human) (UniProt O15146)
MET (human) = MET (human) (UniProt P08581)
MAPK7 (human) = MAPK7 (human) (UniProt Q13164)
TNNI3K (human) = TNNI3K (human) (UniProt Q59H18)
BRSK1 (human) = BRSK1 (human) (UniProt Q8TDC3)
TYRO3 (human) = TYRO3 (human) (UniProt Q06418)
PIK3CA (human) = PIK3CA (human) (UniProt P42336)

Sequence of MLTK (human) (Q9NYL2 whole entry, looked up): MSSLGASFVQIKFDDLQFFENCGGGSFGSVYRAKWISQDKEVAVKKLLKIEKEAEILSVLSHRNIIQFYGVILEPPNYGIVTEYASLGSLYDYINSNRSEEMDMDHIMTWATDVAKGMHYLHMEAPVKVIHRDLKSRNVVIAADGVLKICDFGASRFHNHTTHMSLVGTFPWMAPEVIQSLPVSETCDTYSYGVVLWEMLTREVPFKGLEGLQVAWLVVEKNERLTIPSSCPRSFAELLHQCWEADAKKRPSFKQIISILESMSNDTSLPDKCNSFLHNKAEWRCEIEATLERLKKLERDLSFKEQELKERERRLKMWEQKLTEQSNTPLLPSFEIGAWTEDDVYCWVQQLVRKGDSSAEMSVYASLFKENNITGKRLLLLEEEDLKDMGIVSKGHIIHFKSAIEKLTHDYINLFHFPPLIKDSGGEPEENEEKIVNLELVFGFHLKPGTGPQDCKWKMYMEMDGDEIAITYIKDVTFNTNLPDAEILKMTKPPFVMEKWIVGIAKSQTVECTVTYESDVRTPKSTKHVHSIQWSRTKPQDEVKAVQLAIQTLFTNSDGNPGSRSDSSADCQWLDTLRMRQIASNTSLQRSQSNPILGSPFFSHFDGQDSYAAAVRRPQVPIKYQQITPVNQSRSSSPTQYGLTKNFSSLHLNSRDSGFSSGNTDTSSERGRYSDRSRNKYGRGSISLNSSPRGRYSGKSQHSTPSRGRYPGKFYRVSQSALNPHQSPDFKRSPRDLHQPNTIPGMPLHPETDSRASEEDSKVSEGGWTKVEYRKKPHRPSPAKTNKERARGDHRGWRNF
Sequence of AURKB (human) (Q96GD4 whole entry, looked up): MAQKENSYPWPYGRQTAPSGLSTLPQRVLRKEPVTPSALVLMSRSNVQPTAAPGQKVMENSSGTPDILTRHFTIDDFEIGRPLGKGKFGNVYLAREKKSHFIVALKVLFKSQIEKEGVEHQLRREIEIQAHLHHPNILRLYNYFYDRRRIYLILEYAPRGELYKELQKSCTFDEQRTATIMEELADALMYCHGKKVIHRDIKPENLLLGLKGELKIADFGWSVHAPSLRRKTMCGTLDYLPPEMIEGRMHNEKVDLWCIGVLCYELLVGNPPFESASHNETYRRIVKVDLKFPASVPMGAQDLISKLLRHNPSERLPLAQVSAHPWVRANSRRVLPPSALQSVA
Sequence of CDK19 (human) (Q9BWU1 whole entry, looked up): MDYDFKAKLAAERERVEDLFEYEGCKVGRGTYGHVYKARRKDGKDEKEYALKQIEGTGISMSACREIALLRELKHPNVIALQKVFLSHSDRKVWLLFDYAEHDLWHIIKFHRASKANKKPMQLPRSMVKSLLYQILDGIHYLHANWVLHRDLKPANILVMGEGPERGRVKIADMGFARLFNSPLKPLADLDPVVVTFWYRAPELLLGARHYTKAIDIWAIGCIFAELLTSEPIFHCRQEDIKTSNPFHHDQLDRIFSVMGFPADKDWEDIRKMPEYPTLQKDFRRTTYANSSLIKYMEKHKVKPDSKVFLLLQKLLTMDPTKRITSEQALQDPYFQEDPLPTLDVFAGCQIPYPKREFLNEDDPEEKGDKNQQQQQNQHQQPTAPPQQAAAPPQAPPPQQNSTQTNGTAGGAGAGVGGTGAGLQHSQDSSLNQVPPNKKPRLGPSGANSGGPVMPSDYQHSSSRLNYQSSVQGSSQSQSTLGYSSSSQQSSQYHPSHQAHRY
Sequence of YES1 (human) (P07947 whole entry, looked up): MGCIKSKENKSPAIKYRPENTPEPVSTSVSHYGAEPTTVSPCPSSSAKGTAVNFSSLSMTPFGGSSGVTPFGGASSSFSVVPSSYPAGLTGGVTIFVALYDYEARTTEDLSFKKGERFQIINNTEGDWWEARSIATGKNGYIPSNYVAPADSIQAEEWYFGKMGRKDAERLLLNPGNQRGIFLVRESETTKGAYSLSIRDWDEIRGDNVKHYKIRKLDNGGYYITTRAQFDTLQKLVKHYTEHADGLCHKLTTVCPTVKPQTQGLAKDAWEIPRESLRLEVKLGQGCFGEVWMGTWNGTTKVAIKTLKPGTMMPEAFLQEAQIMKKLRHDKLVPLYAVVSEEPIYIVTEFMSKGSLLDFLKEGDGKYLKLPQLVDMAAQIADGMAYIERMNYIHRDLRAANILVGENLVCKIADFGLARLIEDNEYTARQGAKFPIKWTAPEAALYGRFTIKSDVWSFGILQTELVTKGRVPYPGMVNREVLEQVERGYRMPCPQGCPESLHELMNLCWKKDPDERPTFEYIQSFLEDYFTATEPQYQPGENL
Sequence of CDKL1 (human) (Q00532 whole entry, looked up): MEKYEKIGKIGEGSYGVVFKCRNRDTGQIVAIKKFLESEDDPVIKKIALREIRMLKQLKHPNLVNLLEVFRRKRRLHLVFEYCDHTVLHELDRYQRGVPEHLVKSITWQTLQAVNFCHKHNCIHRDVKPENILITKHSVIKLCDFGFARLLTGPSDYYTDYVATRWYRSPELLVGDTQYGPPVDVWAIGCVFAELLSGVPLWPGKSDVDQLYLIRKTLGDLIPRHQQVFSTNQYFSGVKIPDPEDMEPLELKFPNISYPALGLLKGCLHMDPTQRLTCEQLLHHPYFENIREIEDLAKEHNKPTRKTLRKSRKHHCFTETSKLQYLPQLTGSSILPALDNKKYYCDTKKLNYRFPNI
Sequence of TNNI3K (human) (Q59H18 whole entry, looked up): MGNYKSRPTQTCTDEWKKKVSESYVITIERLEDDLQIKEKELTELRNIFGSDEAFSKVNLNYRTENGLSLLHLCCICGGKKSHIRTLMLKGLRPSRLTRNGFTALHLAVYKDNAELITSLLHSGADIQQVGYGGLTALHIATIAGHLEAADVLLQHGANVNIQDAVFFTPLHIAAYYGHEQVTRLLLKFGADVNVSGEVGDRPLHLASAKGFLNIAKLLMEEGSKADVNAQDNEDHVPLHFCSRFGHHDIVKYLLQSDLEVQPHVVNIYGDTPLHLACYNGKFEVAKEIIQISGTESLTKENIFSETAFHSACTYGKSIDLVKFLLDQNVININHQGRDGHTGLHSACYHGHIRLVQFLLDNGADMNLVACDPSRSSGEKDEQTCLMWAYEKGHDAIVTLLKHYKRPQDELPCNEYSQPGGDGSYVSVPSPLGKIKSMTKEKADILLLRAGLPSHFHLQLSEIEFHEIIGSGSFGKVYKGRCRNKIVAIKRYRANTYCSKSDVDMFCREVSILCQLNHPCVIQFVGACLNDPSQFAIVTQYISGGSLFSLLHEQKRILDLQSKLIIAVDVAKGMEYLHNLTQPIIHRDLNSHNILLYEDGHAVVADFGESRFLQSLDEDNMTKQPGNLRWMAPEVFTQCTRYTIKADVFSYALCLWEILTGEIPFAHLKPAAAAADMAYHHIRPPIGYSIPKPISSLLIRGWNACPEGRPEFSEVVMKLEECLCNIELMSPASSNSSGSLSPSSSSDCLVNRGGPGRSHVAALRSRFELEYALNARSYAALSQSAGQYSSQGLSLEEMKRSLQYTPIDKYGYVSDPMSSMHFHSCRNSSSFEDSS
Sequence of MAPK1 (human) (P28482 whole entry, looked up): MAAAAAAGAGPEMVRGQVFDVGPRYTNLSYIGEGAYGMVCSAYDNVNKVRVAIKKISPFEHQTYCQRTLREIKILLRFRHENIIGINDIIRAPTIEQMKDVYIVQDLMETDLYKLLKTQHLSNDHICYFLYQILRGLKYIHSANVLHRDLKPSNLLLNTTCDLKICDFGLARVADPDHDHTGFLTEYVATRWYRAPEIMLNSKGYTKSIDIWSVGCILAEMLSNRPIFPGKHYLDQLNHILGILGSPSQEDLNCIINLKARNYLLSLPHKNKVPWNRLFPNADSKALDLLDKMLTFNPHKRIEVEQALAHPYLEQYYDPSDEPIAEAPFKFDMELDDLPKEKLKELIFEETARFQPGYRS
Sequence of TYK2 JH2 pseudokinase (human) (P29597 whole entry, looked up): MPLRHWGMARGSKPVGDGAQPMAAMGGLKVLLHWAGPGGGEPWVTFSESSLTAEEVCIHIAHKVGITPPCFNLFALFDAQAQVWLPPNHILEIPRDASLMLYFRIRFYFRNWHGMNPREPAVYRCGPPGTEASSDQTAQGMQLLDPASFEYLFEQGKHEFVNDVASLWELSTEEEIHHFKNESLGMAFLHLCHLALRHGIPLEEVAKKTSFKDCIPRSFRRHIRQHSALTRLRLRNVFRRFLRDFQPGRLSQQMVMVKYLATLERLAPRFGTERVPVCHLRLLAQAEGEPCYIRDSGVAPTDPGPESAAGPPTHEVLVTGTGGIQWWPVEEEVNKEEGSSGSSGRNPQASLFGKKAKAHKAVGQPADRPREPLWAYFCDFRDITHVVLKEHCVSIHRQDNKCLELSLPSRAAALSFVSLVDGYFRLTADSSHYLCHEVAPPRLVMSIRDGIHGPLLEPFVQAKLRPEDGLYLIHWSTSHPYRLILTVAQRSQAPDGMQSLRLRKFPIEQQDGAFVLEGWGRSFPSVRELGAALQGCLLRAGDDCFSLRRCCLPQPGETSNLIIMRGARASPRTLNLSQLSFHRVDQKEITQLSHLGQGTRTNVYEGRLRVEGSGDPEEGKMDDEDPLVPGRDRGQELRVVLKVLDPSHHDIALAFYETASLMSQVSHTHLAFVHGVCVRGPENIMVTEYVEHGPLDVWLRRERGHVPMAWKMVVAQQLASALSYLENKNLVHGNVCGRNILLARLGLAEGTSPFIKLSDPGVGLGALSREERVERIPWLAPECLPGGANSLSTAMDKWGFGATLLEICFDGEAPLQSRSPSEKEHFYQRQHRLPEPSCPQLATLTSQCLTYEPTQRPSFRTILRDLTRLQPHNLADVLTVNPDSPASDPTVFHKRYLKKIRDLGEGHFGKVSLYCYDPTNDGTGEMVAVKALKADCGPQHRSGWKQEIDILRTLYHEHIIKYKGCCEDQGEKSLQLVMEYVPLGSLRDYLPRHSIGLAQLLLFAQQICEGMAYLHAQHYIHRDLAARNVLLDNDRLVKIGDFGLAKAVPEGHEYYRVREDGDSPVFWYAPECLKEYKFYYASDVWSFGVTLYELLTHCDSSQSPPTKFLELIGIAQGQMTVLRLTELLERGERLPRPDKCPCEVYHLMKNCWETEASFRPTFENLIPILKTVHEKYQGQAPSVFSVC

Row | SMILES | kinase still bound, per cent of control (BMPR1B (human)) [%] | kinase still bound, per cent of control (CSNK2A2 (human)) [%] | kinase still bound, per cent of control (CDK19 (human)) [%] | kinase still bound, per cent of control (HUNK (human)) [%] | kinase still bound, per cent of control [1] [%] | kinase still bound, per cent of control (IGF1R (human)) [%] | kinase still bound, per cent of control (LATS1 (human)) [%] | kinase still bound, per cent of control (MAPK4 (human)) [%] | kinase still bound, per cent of control (BRAF (human)) [%] | kinase still bound, per cent of control (NTRK2 (human)) [%] | kinase still bound, per cent of control (KDR (human)) [%] | kinase still bound, per cent of control (PLK2 (human)) [%] | kinase still bound, per cent of control (ACVR1B (human)) [%] | kinase still bound, per cent of control (MLTK (human)) [%] | kinase still bound, per cent of control (YES1 (human)) [%] | kinase still bound, per cent of control (CDK3 (human)) [%] | kinase still bound, per cent of control (PDPK1 (human)) [%] | kinase still bound, per cent of control (IRAK3 (human)) [%] | kinase still bound, per cent of control (CSNK1D (human)) [%] | kinase still bound, per cent of control (MYLK4 (human)) [%] | also measured
1 | N#CCNC(=O)c1ccc(-c2ccnc(Nc3ccc(N4CCOCC4)cc3)n2)cc1 | 85 | 6.2 | 100 | 100 | 100 | 100 | 100 | 93 | 74 | 67 | 99 | 51 | 38 | 100 | 91 | 100 | 100 | 22 | 100 | 0 | kinase still bound, per cent of control (RPS6KA6 KD2 (human)): 52%; kinase still bound, per cent of control (CSNK1A1 (human)): 81%; kinase still bound, per cent of control (CDK13 (human)): 91%; kinase still bound, per cent of control (HCK (human)): 100%; kinase still bound, per cent of control (AURKB (human)): 69%; kinase still bound, per cent of control (MTOR (human)): 100%; kinase still bound, per cent of control (CDKL1 (human)): 60%; kinase still bound, per cent of control (PI4KB (human)): 17%; kinase still bound, per cent of control (ACVR1 (human)): 0.95%; kinase still bound, per cent of control (MAPK1 (human)): 93%; kinase still bound, per cent of control (RPS6KA1 KD1 (human)): 100%; kinase still bound, per cent of control (AKT3 (human)): 100%; kinase still bound, per cent of control (WEE2 (human)): 100%; kinase still bound, per cent of control (MUSK (human)): 100%; kinase still bound, per cent of control (MET (human)): 100%; kinase still bound, per cent of control (MAPK7 (human)): 48%; kinase still bound, per cent of control (TNNI3K (human)): 100%; kinase still bound, per cent of control (BRSK1 (human)): 100%; kinase still bound, per cent of control (TYRO3 (human)): 100%
2 | C[C@@H](Oc1cc(-c2cnn(C3CCNCC3)c2)cnc1N)c1c(Cl)ccc(F)c1Cl | 61 | 55 | 100 | 74 | 2.3 | 0.9 | 100 | 84 | 53 | 0.2 | 78 | 73 | 9 | 100 | 17 | 100 | 100 | 0.95 | 100 | 86 | kinase still bound, per cent of control (RPS6KA6 KD2 (human)): 35%; kinase still bound, per cent of control (CSNK1A1 (human)): 61%; kinase still bound, per cent of control (CDK13 (human)): 24%; kinase still bound, per cent of control (MTOR (human)): 100%; kinase still bound, per cent of control (CDKL1 (human)): 81%; kinase still bound, per cent of control (PI4KB (human)): 100%; kinase still bound, per cent of control (ACVR1 (human)): 0.6%; kinase still bound, per cent of control (MAPK1 (human)): 100%; kinase still bound, per cent of control (AKT3 (human)): 100%; kinase still bound, per cent of control (WEE2 (human)): 100%; kinase still bound, per cent of control (MUSK (human)): 0.3%; kinase still bound, per cent of control (MAPK7 (human)): 0.1%; kinase still bound, per cent of control (PIK3CA (human)): 100%; kinase still bound, per cent of control (BRSK1 (human)): 48%
3 | COc1cc2ncn(-c3cc(OCc4ccccc4C(F)(F)F)c(C(N)=O)s3)c2cc1OC | 64 | 17 | 100 | 82 | 97 | 100 | 100 | 100 | 100 | 59 | 76 | 0.2 | 76 | 74 | 97 | 100 | 66 | 67 | 81 | 17 | kinase still bound, per cent of control (CSNK1A1 (human)): 60%; kinase still bound, per cent of control (CDK13 (human)): 76%; kinase still bound, per cent of control (HCK (human)): 72%; kinase still bound, per cent of control (AURKB (human)): 34%; kinase still bound, per cent of control (MTOR (human)): 78%; kinase still bound, per cent of control (CDKL1 (human)): 72%; kinase still bound, per cent of control (PI4KB (human)): 100%; kinase still bound, per cent of control (ACVR1 (human)): 60%; kinase still bound, per cent of control (MAPK1 (human)): 86%; kinase still bound, per cent of control (RPS6KA1 KD1 (human)): 96%; kinase still bound, per cent of control (AKT3 (human)): 100%; kinase still bound, per cent of control (WEE2 (human)): 100%; kinase still bound, per cent of control (MUSK (human)): 100%; kinase still bound, per cent of control (MET (human)): 15%; kinase still bound, per cent of control (MAPK7 (human)): 100%; kinase still bound, per cent of control (TNNI3K (human)): 81%; kinase still bound, per cent of control (TYRO3 (human)): 72%
4 | CS(=O)(=O)N1CCN(Cc2cc3nc(-c4cccc5[nH]ncc45)nc(N4CCOCC4)c3s2)CC1 | 100 | 100 | 100 | 100 | 100 | 100 | 100 | 100 | 100 | 100 | 100 | 100 | 100 | 100 | 100 | 100 | 100 | 100 | 100 | 100 | kinase still bound, per cent of control (RPS6KA6 KD2 (human)): 100%; kinase still bound, per cent of control (HCK (human)): 100%; kinase still bound, per cent of control (AURKB (human)): 100%; kinase still bound, per cent of control (PI4KB (human)): 100%; kinase still bound, per cent of control (ACVR1 (human)): 100%; kinase still bound, per cent of control (MAPK1 (human)): 100%; kinase still bound, per cent of control (RPS6KA1 KD1 (human)): 100%; kinase still bound, per cent of control (AKT3 (human)): 100%; kinase still bound, per cent of control (WEE2 (human)): 100%; kinase still bound, per cent of control (MUSK (human)): 100%; kinase still bound, per cent of control (MET (human)): 100%; kinase still bound, per cent of control (MAPK7 (human)): 100%; kinase still bound, per cent of control (TNNI3K (human)): 100%; kinase still bound, per cent of control (PIK3CA (human)): 0.15%; kinase still bound, per cent of control (BRSK1 (human)): 100%; kinase still bound, per cent of control (TYRO3 (human)): 100%
